Source: patent US12240844B2 (Voronoi, Inc., priority 2019, dated 2025)

What was measured:
Format in all cases: biochemical
[1] = molecular target: T1, human GST-DYRK1A (full length) (Homo sapiens, UniProt Q13627); assay: GST-DYRK1A enzyme inhibition, ADP-Glo kinase assay; conditions: read-out: DYRK1 IC50
T1 construct: purified human GST-DYRK1A (full length, Thermo scientifics) enzyme; GST; purchased Thermo scientifics
Method in brief: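 ADP-Glo luminescence quantified kinase activity after a 1 h, 25° C reaction of 10 ng full-length GST-tagged human DYRK1A, substrate and 10 uM ATP in Tris-HCl buffer pH 7.4 with MgCl2, BSA and DTT. Triplicate IC50 values (nM) calculated relative to untreated solvent control.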

human GST-CLK1 (129-end) = molecular target: T2, human GST-CLK1 (129-end) (Homo sapiens, UniProt P49759); assay: GST-CLK1 enzyme inhibition, ADP-Glo kinase assay; conditions: ATP 10 uM
T2 construct: purified human GST-CLK1 (129-end, Signalchem) enzyme; GST; purchased Signalchem
Method in brief: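 ADP formation was read by ADP-Glo luminescence after 1 h at 25° C with 3 ng human GST-CLK1 (129-end), substrate and 10 uM ATP in Tris pH 7.4 buffer containing MgCl2, BSA and DTT. Inhibition relative to untreated solvent control gave IC50 (nM), run in triplicate.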

LRRK2 = LRRK2 (Homo sapiens, UniProt Q5S007); assay: LRRK2 enzyme inhibition, ADP-Glo kinase assay; parameters: purchased Invitrogen PR8604B
Experimental: In order to evaluate the inhibitory activity of the compounds according to the present invention on LRRK2, LRRK2 (G2019S), DYRK1, CLK1 and TTK kinases, the following experiment was performed.
Example compounds were reacted with the purified human LRRK2 (Invitrogen #PR8604B) enzyme to evaluate the enzyme inhibitory ability as follows. The reaction buffer was used as the composition of 40 mM Tris-HCl pH7.4, 20 mM MgCl2, 0.5 mg/ml BSA and 50 μM DTT, and the reaction of all test materials was performed on the reaction buffer. The compound was diluted with 10 mM DMSO stock in 12 steps by a serial dilution method, and the enzyme activity was measured at the final compound concentrations of 50, 10, 2, 0.4, 0.08, 0.016, 0.0032, 0.00064, 0.000128, 0.0000256, 0.00000512 and 0.000001024 μM. In the test, the human LRRK2 (25 ng) enzyme was reacted with the purified ATP (10 μM) and an enzyme substrate ([…]) at 25° C. for 2 hours, and then the enzyme activity was identified using the in vitro ADP-Glo™ kinase assay (promega). The enzyme activity reaction liquid, an ADP-Glo reaction liquid and an enzyme potency detection solution were reacted in a ratio of 2:2:1, and the degree of inhibition of enzyme activity was measured by Luminescence. The degree of inhibition of enzyme activity according to the treatment concentrations of the respective compounds was calculated based on the fluorescence of the enzyme activity of a solvent control group that was not treated with the compound, where the concentration of each compound to inhibit enzyme activity inhibition by 50% was determined as an IC50 (nM) value and obtained using Prism (Version 5.01, GraphPad) software.
In the table below, the following designations were used for the evaluation of enzyme inhibitory ability.

LRRK2 (G2019S) = LRRK2 (G2019S) (Homo sapiens, UniProt Q5S007, G2019S); assay: LRRK2 G2019S enzyme inhibition, ADP-Glo kinase assay; parameters: purchased SignalChem L10-12GG
Method in brief: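 Activity read as ADP-Glo luminescence, normalized to untreated solvent control, with IC50 (nM) fitted over 12 final compound levels (top 50 μM). Reaction: 2 h, 25° C, human LRRK2 G2019S 16 ng, ATP 25 μM, substrate 0.2 μg, in Tris-HCl pH 7.4 with MgCl2, BSA and DTT.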

LRRK2, sequence (Q5S007 970-2527 limits assumed): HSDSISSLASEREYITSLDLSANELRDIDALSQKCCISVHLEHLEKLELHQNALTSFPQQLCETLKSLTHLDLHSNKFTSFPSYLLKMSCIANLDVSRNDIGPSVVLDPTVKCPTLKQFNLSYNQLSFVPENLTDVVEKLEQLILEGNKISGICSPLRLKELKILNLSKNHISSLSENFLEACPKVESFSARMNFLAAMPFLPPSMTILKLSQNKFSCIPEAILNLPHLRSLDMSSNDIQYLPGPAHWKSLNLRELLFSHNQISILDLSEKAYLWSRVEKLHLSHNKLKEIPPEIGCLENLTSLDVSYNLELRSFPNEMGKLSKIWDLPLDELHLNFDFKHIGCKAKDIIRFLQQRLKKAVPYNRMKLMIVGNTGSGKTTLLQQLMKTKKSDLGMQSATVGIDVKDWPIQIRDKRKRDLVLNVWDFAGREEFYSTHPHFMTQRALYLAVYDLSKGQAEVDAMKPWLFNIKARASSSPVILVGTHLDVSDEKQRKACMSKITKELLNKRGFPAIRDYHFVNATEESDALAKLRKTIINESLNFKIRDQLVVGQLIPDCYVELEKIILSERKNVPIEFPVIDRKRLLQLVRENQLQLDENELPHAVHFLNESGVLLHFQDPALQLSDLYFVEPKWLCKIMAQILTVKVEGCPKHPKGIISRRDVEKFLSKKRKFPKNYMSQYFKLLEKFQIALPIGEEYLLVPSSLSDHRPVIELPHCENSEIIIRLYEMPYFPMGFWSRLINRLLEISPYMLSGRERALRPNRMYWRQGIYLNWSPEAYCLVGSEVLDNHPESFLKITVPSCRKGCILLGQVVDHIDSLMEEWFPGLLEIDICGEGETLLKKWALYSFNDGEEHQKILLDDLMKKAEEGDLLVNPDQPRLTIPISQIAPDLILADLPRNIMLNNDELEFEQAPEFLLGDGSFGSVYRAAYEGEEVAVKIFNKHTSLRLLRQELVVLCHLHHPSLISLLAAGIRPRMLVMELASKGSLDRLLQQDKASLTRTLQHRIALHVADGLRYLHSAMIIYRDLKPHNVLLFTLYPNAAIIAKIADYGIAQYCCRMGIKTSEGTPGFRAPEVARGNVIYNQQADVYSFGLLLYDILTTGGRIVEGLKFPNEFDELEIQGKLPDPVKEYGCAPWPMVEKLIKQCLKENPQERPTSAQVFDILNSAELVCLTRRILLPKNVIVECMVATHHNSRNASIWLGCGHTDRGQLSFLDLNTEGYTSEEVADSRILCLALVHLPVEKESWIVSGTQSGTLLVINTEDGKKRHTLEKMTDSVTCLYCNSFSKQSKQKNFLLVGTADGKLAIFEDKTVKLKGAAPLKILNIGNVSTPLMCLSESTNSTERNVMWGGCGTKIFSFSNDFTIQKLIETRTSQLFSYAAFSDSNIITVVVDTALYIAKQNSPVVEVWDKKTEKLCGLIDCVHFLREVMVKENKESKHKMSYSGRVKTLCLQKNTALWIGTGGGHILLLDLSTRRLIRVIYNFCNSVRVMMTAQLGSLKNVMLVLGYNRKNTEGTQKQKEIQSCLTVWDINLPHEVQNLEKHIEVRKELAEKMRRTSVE
LRRK2 (G2019S), sequence (Q5S007 970-2527 G2019S limits assumed): as the sequence (Q5S007 970-2527 limits assumed) above, with G1050S counted along it
T2 sequence (P49759 129-484 limits assumed): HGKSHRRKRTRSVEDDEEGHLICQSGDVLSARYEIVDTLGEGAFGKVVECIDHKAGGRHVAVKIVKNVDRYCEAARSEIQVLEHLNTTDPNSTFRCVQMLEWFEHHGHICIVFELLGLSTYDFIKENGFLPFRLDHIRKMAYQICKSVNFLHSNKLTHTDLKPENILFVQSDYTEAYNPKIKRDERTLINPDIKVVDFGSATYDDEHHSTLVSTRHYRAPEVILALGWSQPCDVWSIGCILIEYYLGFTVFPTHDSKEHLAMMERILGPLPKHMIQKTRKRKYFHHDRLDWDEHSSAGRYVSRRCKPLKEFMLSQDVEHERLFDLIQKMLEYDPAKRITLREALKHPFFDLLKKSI

| SMILES | IC50 [1] | IC50 (human GST-CLK1 (129-end)) | IC50 (LRRK2) | IC50 (LRRK2 (G2019S)) |
| --- | --- | --- | --- | --- |
| CNc1cc(Nc2ccc(S(C)(=O)=O)cc2OC)nc2[nH]cc(C(F)(F)F)c12 [Example 178, N^6-(2-methoxy-4-(methylsulfonyl)phenyl)-N^4-methyl-3-(trifluoromethyl)-1H-pyrrolo[2,3-b]pyridine-4,6-diamine] | < 100 nM | 301 to 1000 nM | 301 to 1000 nM | 301 to 1000 nM |
| COc1cc(S(C)(=O)=O)ccc1Nc1cc(NCCS(C)(=O)=O)c2c(C#N)c[nH]c2n1 [Example 119, 6-((2-methoxy-4-(methylsulfonyl)phenyl)amino)-4-((2-(methylsulfonyl)ethyl)amino)-1H-pyrrolo[2,3-b]pyridine-3-carbonitrile] | 301 to 1000 nM | 301 to 1000 nM | < 100 nM | < 100 nM |
| CCNc1cc(Nc2ccc(C(=O)N3CCC(N4CCOCC4)CC3)c3c2OCCO3)nc2[nH]cc(C(F)(F)F)c12 [Example 161, (8-((4-(ethylamino)-3-(trifluoromethyl)-1H-pyrrolo[2,3-b]pyridin-6-yl)amino)-2,3-dihydrobenzo[b] [1,4]dioxin-5-yl)(4-morpholinopiperidin-1-yl)methanone] | 101 to 300 nM | < 100 nM | < 100 nM | < 100 nM |
| COc1cc(S(C)(=O)=O)ccc1Nc1cc(NC2CCCC2)c2c(C#N)c[nH]c2n1 [Example 121, 4-(cyclopentylamino)-6-((2-methoxy-4-(methylsulfonyl)phenyl)amino)-1H-pyrrolo[2,3-b]pyridine-3-carbonitrile] | 301 to 1000 nM | 301 to 1000 nM | < 100 nM | 301 to 1000 nM |
| CCNc1cc(Nc2ccc(P(C)(C)=O)cc2OC)nc2[nH]cc(C(F)(F)F)c12 [Example 209, (4-((4-(ethylamino)-3-(trifluoromethyl)-1H-pyrrolo[2,3-b]pyridin-6-yl)amino)-3-methoxyphenyl) dimethylphosphine oxide] | 101 to 300 nM | 301 to 1000 nM | < 100 nM | < 100 nM |
| CCNc1cc(Nc2ccc(C(=O)N3CCC(N4CCOCC4)CC3)c3c2OCCO3)nc2[nH]cc(C#N)c12 [Example 113, 4-(ethylamino)-6-((8-(4-morpholinopiperidine-1-carbonyl)-2,3-dihydrobenzo [b] [1,4]dioxin-5-yl)amino)-1H-pyrrolo[2,3-b]pyridine-3-carbonitrile] | 301 to 1000 nM | < 100 nM | < 100 nM | < 100 nM |
| COCCNc1cc(Nc2ccc(C(=O)N3CCC(N4CCOCC4)CC3)c3c2OCCO3)nc2[nH]cc(C(F)(F)F)c12 [Example 164, (8-((4-((2-methoxyethyl)amino)-3-(trifluoromethyl)-1H-pyrrolo[2,3-b]pyridin-6-yl)amino)-2,3-dihydrobenzo[b] [1,4]dioxin-5-yl)(4-morpholinopiperidin-1-yl)methanone] | < 100 nM | < 100 nM | < 100 nM | < 100 nM |
| CNc1cc(Nc2ccc(P3(=O)CCN(C4COC4)CC3)cc2OC)nc2[nH]cc(C#N)c12 [Example 142, 6-((2-methoxy-4-(1-(oxetan-3-yl)-4-oxido-1,4-azaphosphinan-4-yl)phenyl)amino)-4-(methylamino)-1H-pyrrolo[2,3-b]pyridine-3-carbonitrile] | 101 to 300 nM | 301 to 1000 nM | < 100 nM |  |
| CNc1cc(Nc2ccc(C(=O)N3C[C@@H]4C[C@H]3CO4)c3c2OCCO3)nc2[nH]cc(C(F)(F)F)c12 [Example 43, ((1S,4S)-2-oxa-5-azabicyclo[2.2.1]heptan-5-yl)(8-((4-(methylamino)-3-(trifluoromethyl)-1H-pyrrolo[2,3-b]pyridin-6-yl)amino)-2,3-dihydrobenzo[b] [1,4]dioxin-5-yl)methanone] | < 100 nM | < 100 nM | < 100 nM |  |
| COCCNc1cc(Nc2ccc(P3(=O)CCN(C4COC4)CC3)cc2OC)nc2[nH]cc(C#N)c12 [Example 144, 6-((2-methoxy-4-(1-(oxetan-3-yl)-4-oxido-1,4-azaphosphinan-4-yl)phenyl)amino)-4-((2-methoxyethyl)amino)-1H-pyrrolo[2,3-b]pyridine-3-carbonitrile] | 301 to 1000 nM | 101 to 300 nM | < 100 nM |  |
| CN(C)CCNc1cc(Nc2ccc(C(=O)N3CCOCC3)c3c2OCCO3)nc2[nH]cc(C(F)(F)F)c12 [Example 171, (8-((4-((2-(dimethylamino)ethyl)amino)-3-(trifluoromethyl)-1H-pyrrolo[2,3-b]pyridin-6-yl)amino)-2,3-dihydrobenzo [b] [1,4]dioxin-5-yl)(morpholino) methanone] | 301 to 1000 nM | 301 to 1000 nM | < 100 nM |  |
| CCCNc1cc(Nc2ccc(P3(=O)CCN(C4CC4)CC3)cc2OC)nc2[nH]cc(C(F)(F)F)c12 [Example 45, 1-cyclopropyl-4-(3-methoxy-4-((4-(propylamino)-3-(trifluoromethyl)-1H-pyrrolo[2,3-b]pyridin-6-yl)amino)phenyl)-1,4-azaphosphinane 4-oxide] | 101 to 300 nM | 301 to 1000 nM | 101 to 300 nM |  |
| CCNc1cc(Nc2ccc(P3(=O)CCN(CC)CC3)cc2OC)nc2[nH]cc(C(F)(F)F)c12 [Example 210, 1-ethyl-4-(4-((4-(ethylamino)-3-(trifluoromethyl)-1H-pyrrolo[2,3-b]pyridin-6-yl)amino)-3-methoxyphenyl)-1,4-azaphosphinane 4-oxide] | < 100 nM | < 100 nM | < 100 nM |  |
| CCNc1cc(Nc2ccc(P3(=O)CCN(C4CC4)CC3)cc2OC)nc2[nH]cc(C#N)c12 [Example 147, 6-((4-(1-cyclopropyl-4-oxido-1,4-azaphosphinan-4-yl)-2-methoxyphenyl)amino)-4-(ethylamino)-1H-pyrrolo[2,3-b]pyridine-3-carbonitrile] | < 100 nM | 301 to 1000 nM | < 100 nM |  |
| CCCNc1cc(Nc2ccc(C(=O)N3CCOCC3)c3c2OCCO3)nc2[nH]cc(C(F)(F)F)c12 [Example 174, morpholino(8-((4-(propylamino)-3-(trifluoromethyl)-1H-pyrrolo[2,3-b]pyridin-6-yl)amino)-2,3-dihydrobenzo[b] [1,4]dioxin-5-yl)methanone] | 301 to 1000 nM | 301 to 1000 nM | 101 to 300 nM |  |
| CN(C)c1cc(Nc2ccc(C(=O)N3CCC(N4CCOCC4)CC3)c3c2OCCO3)nc2[nH]cc(C(F)(F)F)c12 [Example 50, (8-((4-(dimethylamino)-3-(trifluoromethyl)-1H-pyrrolo[2,3-b]pyridin-6-yl)amino)-2,3-dihydrobenzo[b] [1,4]dioxin-5-yl)(4-morpholinopiperidin-1-yl)methanone] | 301 to 1000 nM | < 100 nM | < 100 nM |  |
| COC[C@@H](C)Nc1cc(Nc2ccc(C(=O)N3CCOCC3)c3c2OCCO3)nc2[nH]cc(C(F)(F)F)c12 [Example 159, (R)-(8-((4-((1-methoxypropan-2-yl)amino)-3-(trifluoromethyl)-1H-pyrrolo[2,3-b]pyridin-6-yl)amino)-2,3-dihydrobenzo [b] [1,4]dioxin-5-yl)(morpholino) methanone] | 101 to 300 nM | < 100 nM | < 100 nM |  |
| CCNc1cc(Nc2ccc(P3(=O)CCN(C(C)=O)CC3)cc2OC)nc2[nH]cc(C#N)c12 [Example 145, 6-((4-(1-acetyl-4-oxido-1,4-azaphosphinan-4-yl)-2-methoxyphenyl)amino)-4-(ethylamino)-1H-pyrrolo[2,3-b]pyridine-3-carbonitrile] | 101 to 300 nM | 301 to 1000 nM | < 100 nM |  |
